# Counter-ions that a name gives are not always drawn.
# Columns and labels:
# [1] = target: T1, trypsin-like site of 26S proteasomes (Oryctolagus cuniculus, UniProt G1SWK8); assay: Inhibition of purified 26S proteasomes, substrate Ac-RLR-amc; format: biochemical, rabbit; conditions: purified 26S proteasomes; >>30 no inhibition at 30 μM, >30 inhibition between 10 and 50% at 30 μM; read-out: IC50 for sites in 26S proteasomes: Tr-L
# T1 construct: IC50 for sites in 26S proteasomes: Tr-L; other: purified 26S proteasomes; other: 26S proteasomes from rabbit muscles
# T1 sequence (G1SWK8 1-271): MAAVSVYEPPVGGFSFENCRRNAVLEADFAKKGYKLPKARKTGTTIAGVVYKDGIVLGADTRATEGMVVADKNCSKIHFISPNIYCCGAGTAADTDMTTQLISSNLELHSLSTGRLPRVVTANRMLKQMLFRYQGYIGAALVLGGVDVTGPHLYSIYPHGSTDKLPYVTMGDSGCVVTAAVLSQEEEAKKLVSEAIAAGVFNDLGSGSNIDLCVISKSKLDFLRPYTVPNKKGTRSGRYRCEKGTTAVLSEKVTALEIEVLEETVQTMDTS
# [2] = target: caspase-like site of 26S proteasomes (Oryctolagus cuniculus, UniProt A0A5F9DQW2); assay: Inhibition of purified 26S proteasomes, substrate Ac-nLPnLD-amc; format: biochemical, rabbit; conditions: >>30 no inhibition at 30 μM, >30 inhibition between 10 and 50% at 30 μM, read-out: IC50 for sites in 26S proteasomes: Casp-L
# caspase-like site of 26S proteasomes, sequence (A0A5F9DQW2 1-212): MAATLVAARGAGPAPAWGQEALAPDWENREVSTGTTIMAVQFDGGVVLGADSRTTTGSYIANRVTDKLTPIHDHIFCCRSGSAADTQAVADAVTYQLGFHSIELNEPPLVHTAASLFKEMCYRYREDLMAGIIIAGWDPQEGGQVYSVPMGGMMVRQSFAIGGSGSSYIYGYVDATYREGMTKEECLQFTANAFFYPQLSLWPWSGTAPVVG
# Method: (§1) 26S proteasomes were purified from rabbit muscle using known methods (Screen, et al. (2010) supra). […] NOVEX Bis-Tris gels (12%, Invitrogen) with MOPS running buffer were used for electrophoretic separation of catalytic subunits modified by active-site probes. Inhibition of active sites inside cells was assayed using luminescent PROTEASOMEGLO assay (Promega; Moravec, et al. (2009) Anal. Biochem. 387:294-302) according to known methods (Britton, et al. (2009) supra).
# [3] = target: T2, chymotrypsin-like site of 26S proteasomes (Oryctolagus cuniculus, UniProt G1T4Q9); assay: Inhibition of purified 26S proteasomes, substrate Suc-LLVY-amc; format: biochemical, rabbit; conditions: >>30 no inhibition at 30 μM, >30 inhibition between 10 and 50% at 30 μM, read-out: IC50 for sites in 26S proteasomes: Chym-L
# T2 sequence (G1T4Q9 1-263): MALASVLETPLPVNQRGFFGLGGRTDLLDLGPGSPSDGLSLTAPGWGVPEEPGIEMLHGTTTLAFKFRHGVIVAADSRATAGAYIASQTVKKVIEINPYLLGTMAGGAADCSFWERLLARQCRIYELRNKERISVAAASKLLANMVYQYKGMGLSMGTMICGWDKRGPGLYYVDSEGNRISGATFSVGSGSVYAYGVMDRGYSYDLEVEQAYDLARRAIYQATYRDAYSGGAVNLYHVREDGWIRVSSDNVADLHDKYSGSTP
# Method: as §1
# [4] = system: trypsin-like site of 26S proteasomes; assay: Inhibition of purified 26S proteasomes, substrate Ac-RLR-amc; format: biochemical, rabbit; conditions: for IC50 (Chym-L)/IC50 (Tr-L): rabbit 26S proteasomes
# Cathepsin B, H, L, S = assay: Cathepsin activity with pan-cathepsin substrate Z-FR-amc; format: cell-based; conditions: NCI-H929 cells, 6 hour treatment
# Method: Cathepsin B, H, L, S activity was measured with pan-cathepsin substrate Z-FR-amc (Kirschke & Wiederanders (1994) Methods Enzymol. 244:500-11) in extracts of cytosol-less cells at pH 6.0 (Screen, et al. (2010) supra). Cathepsin D activity was measured in cytosol-less extracts using SENSOLYTE 520 Cathepsin D Fluorometric Assay Kit (AnaSpec). Combined cathepsin D and E activity was measured using the same kit, in which cathepsin D substrate provided with the kit was replaced with 7-Methoxycoumarin-[…](Dnp)-X′-NH2 (SEQ ID NO:10; where “X′” stand for D-Arg) internally quenched fluorogenic substrate of cathepsin D and E. In this case, pH 3.0 assay buffer used for cell extraction. All activity observed using both procedures was inhibited by more than 98% by specific inhibitor of aspartic proteases pepstatin A.
# [5] = system: trypsin-like sites (β2) of proteasome in MM cells; assay: PROTEASOMEGLO assay of proteasome inhibition in MM cells; format: cell-based
# Method: Proteasome inhibition in MM cells was measured with luminogenic substrates using PROTEASOMEGLO assay (Promega). […] An aliquot of culture was pelleted and medium was removed and replaced with PBS. The resulting cell suspension was mixed with luminogenic substrates in the manufacturer-provided lysis/assay buffer. After 3 minutes mixing on an orbital shaker, the plate was incubated in the dark for additional 17 minutes, followed by the measurements of the luminescence, performed in triplicate for each substrate/data point. Data were analyzed as for purified proteasomes. […] Cells (1×10^6 per well of a 6-well plate) were incubated with the inhibitors for 4 hours at 37° C. and this was followed by a 2 hour incubation with 5 μM BODIPY-TMR-epoxomicin. Subsequently, the medium was removed and the cells were washed with PBS and harvested. […] The supernatant was collected and the protein concentration was determined by the Bradford assay, and used to normalize gel loading. The samples were analysed by SDS-PAGE and fluorescent densitometry as described for competition experiment in cell lysates. IC50 values were calculated from three independent experiments using […] PRISM software.
# β5 proteasome subunit = target: T3, β5 proteasome subunit (Homo sapiens, UniProt P20618+P28074); assay: Competition assay in HEK-293T cell lysate with MV151; format: biochemical; conditions: HEK293 extracts
# T3 construct: Whole cell lysates of HEK-293T or EL-4 cells were made by sonication; endogenous in cells; host or cells: HEK-293T
# Method: Whole cell lysates of HEK-293T or EL-4 cells were made by sonication in 3 volumes of lysis buffer containing 50 mM Tris pH 7.5, 1 mM DTT, 5 mM MgCl2, 250 mM sucrose, 2 mM ATP, 0.025% digitonin. Protein concentration was determined by the Bradford assay. Cell lysates (13.5 μg total protein for HEK lysates and 9 μg total protein for EL-4 lysates) were exposed to the inhibitors for 1 hour at 37° C. prior to incubation with MV151 (0.5 μM) or BODIPY-TMR-epoxomicin (0.5 μM) for an additional 1 hour at 37° C. Reaction mixtures were boiled with Laemmli's buffer containing (3-mercaptoethanol for 5 minutes before being resolved by 12.5% SDS-PAGE. In-gel detection of residual proteasome activity was performed in the wet gel slabs directly on the TYPHOON Variable Mode Imager (Amersham Biosciences) using the Cy3/Tamra settings (λex 532 nm, λem 560 nm) to detect MV151, BODIPY-TMR-epoxomicin and Cy2/Fam settings (λex 488 nm, λem 520 nm) to detect compounds 39 and 59.
# The inhibition potential of the inhibitors for each of the catalytically active subunits was assessed in competition assays employing extracts of human embryonic kidney cells (HEK-293T) and mouse lymphoma cells (EL-4) in combination with the fluorescent broad spectrum proteasome probe MV151 (Verdoes, et al. (2006) Chem. Biol. 13:1217-1226). Competitive inhibition of a proteasome active site is reflected by the disappearance of the corresponding band on a gel.
# RPMI-8226 cells = assay: ALAMAR BLUE cell viability assay; format: cell-based; conditions: E-64d 10 μM
# Method: RPMI-8226 and NCI-H929 cells were cultured in RPMI-1640 supplemented with 10% fetal bovine serum, penicillin, streptomycin, and plasmocin in 5% CO2 humidified incubator. HEK-293T cells were cultured in DMEM containing 10% fetal calf serum, 10 units/mL penicillin, and 10 μg/mL streptomycin in a 7% CO2 humidified incubator. Viability of multiple myeloma cells was measured with ALAMAR BLUE mitochondrial dye conversion assay. Viability of peripheral blood mononuclear cells (PBMNCs) was measured using CELL TITER-GLO luminescent cell viability assay (Promega), which is based on quantification of ATP present in the cells. Caspase-3/7 activity was measured using APO-ONE 3/7 homogeneous assay (Promega).
Compound,IC50 [1],IC50 [2],IC50 [3],IC50 (Chym-L)/IC50 (Tr-L) [4],other results
"CC(C)C[C@H](NC(=O)[C@H](Cc1ccccc1)N=[N+]=[N-])C(=O)N[C@@H](CC(C)C)C(=O)N[C@@H](Cc1ccc(CN)cc1)C(=O)[C@@]1(C)CO1 [Compound 4b, N3Phe-Leu-Leu-Phe(4-CH2NH2)EK]",0.25 µM,11 µM,,,
"CC(C)C[C@H](NC(=O)[C@H](Cc1ccccc1)N=[N+]=[N-])C(=O)N[C@@H](CC(C)C)C(=O)N[C@H](/C=C/S(C)(=O)=O)Cc1ccc(N)cc1 [Compound 45a, N3-Phe-Leu-Leu-Phe(4-NH2)-VS]",0.11 µM,23 µM,0.04 µM,,
"CC(C)C[C@H](NC(=O)[C@H](Cc1ccccc1)N=[N+]=[N-])C(=O)N[C@@H](CC(C)C)C(=O)N[C@@H](Cc1ccc(N)cc1)C(=O)[C@@]1(C)CO1 [Compound 45b, N3-Phe-Leu-Leu-Phe(4-NH2)-EK]",,> 30 µM,0.01 µM,,
"CC(C)C[C@H](NC(=O)[C@H](Cc1ccccc1)N=[N+]=[N-])C(=O)N[C@@H](CC(C)C)C(=O)N[C@H](/C=C/S(C)(=O)=O)Cc1ccncc1 [Compound 46, N3-Phe-Leu-Leu-Ala(4-pyridine)-VS]",,> 30 µM,< 0.1 µM,,
"CC(C)C[C@H](NC(=O)[C@H](Cc1ccccc1)N=[N+]=[N-])C(=O)N[C@@H](CC(C)C)C(=O)N[C@H](/C=C/S(C)(=O)=O)CCCCN [Compound 47, N3-Phe-Leu-Leu-Lys-VS]",,> 30 µM,,,
"Cc1c(O)cccc1C(=O)N[C@H](C(=O)N[C@@H](CO)C(=O)N[C@H](/C=C/S(C)(=O)=O)Cc1ccc(N)cc1)C(C)C [Compound 49, HMB-Val-Ser-Phe(4-NH2)-VS]",0.11 µM,23 µM,0.04 µM,0.36,
"CC(C)C[C@H](NC(=O)[C@H](Cc1ccncc1)NC(=O)[C@H](Cc1ccccc1)N=[N+]=[N-])C(=O)N[C@H](/C=C/S(C)(=O)=O)Cc1ccc(CN)cc1 [Compound 50, N3-Phe-Ala (4-pyridine)-Leu-Phe (4-CH2NH2-TFA)-VS]",,,,,"inhibition of cathepsins (Z-FR-amc) (Cathepsin B, H, L, S): partly reduced cathepsin activity"
"CC(C)C[C@H](NC(=O)[C@H](Cc1ccc(N)cc1)NC(=O)[C@H](Cc1ccccc1)N=[N+]=[N-])C(=O)N[C@H](/C=C/S(C)(=O)=O)Cc1ccc(CN)cc1 [Compound 51, N3-Phe-Phe (4-NH2. TFA)-Leu-Phe (4-CH2NH2.TFA)-VS]",0.03 µM,,3.4 µM,,"inhibition of cathepsins (Z-FR-amc) (Cathepsin B, H, L, S): behaved similarly to 4a; difference in IC50 for trypsin-like activity between NCI-H929 and RPMI-8226 [5]: five-fold"
"CC(C)C[C@H](NC(=O)[C@H](Cc1ccc(CN)cc1)NC(=O)[C@H](Cc1ccccc1)N=[N+]=[N-])C(=O)N[C@H](/C=C/S(C)(=O)=O)Cc1ccc(N)cc1 [Compound 53, N3-Phe-Phe (4-CH2NH2)-Leu-Phe (4-NH2)—VS]",,> 30 µM,,59,
"CC(C)C[C@H](NC(=O)[C@H](Cc1ccc(CN)cc1)NC(=O)[C@H](Cc1ccccc1)N=[N+]=[N-])C(=O)N[C@H](/C=C/S(C)(=O)=O)Cc1ccncc1 [Compound 54, N3-Phe-Phe (4-CH2NH2)-Leu-Ala (4 pyridine)-VS]",,> 30 µM,,9.1,
"CC(C)C[C@@H](/C=C/S(C)(=O)=O)NC(=O)[C@H](CC(C)C)NC(=O)[C@H](Cc1ccc(CN)cc1)NC(=O)[C@H](Cc1ccccc1)N=[N+]=[N-] [Compound 55, N3-Phe-Phe(4-CH2NH2.TFA)-Leu-Leu-VS]",,,0.01 µM,0.057,
"CC(C)C[C@@H](/C=C/S(C)(=O)=O)NC(=O)[C@H](CC(C)C)NC(=O)[C@H](Cc1ccc(N)cc1)NC(=O)[C@H](Cc1ccccc1)N=[N+]=[N-] [Compound 56, N3-Phe-Phe(4-NH2-TFA)-Leu-Leu-VS]",24 µM,> 30 µM,< 0.004 µM,<0.00017,inhibition of chymotrypsin-like sites in extracts versus purified proteasomes (β5 proteasome subunit): less potently and selectively in extracts than in purified proteasomes
"CC(C)C[C@@H](/C=C/S(C)(=O)=O)NC(=O)[C@H](CC(C)C)NC(=O)[C@H](Cc1ccncc1)NC(=O)[C@H](Cc1ccccc1)N=[N+]=[N-] [Compound 57, N3-Phe-Ala(4-pyridine)-Leu-Leu-VS]",24 µM,> 30 µM,,0.00021,inhibition of chymotrypsin-like sites in extracts versus purified proteasomes (β5 proteasome subunit): less potently and selectively in extracts than in purified proteasomes
"CC(C)C[C@H](NC(=O)[C@H](Cc1ccccc1)NC(=O)[C@H](Cc1ccccc1)N=[N+]=[N-])C(=O)N[C@H](/C=C/S(C)(=O)=O)Cc1ccccc1 [Compound 58, N3-Phe-Phe-Leu-Phe-VS]",> 30 µM,> 30 µM,,,
CCOC(=O)[C@H]1O[C@@H]1C(=O)N[C@@H](CC(C)C)C(=O)NCCC(C)C [Compound E-64d],,,,,sensitization to carfilzomib (RPMI-8226 cells): did not sensitize cells to carfilzomib
BODIPY-triazole-Phe-Phe(4-CH2NH2.TFA)-Leu-Phe(4-CH2NH2.TFA)-VS [Compound 59],,,,,specificity after attachment of BODIPY-FL dye [4]: reduced the specificity

# From patent US8609610B2, “Inhibitors of the trypsin-like site of the proteasome and methods of use thereof” (Trustees of Dartmouth College, priority 2011, dated 2013)
